Key:
[1] = tested on: Cloned IL-2 dependent cytolytic T lymphocytes (CTLL-20); experiment: Inhibition of interleukin-2 dependent T-cell growth in vitro: cell counts by trypan blue exclusion; assay type: cell-based; details: 10 Units/mL IL-2
Procedure: (§1) Inhibition of interleukin-2 (IL-2) dependent T-cell growth in vitro was determined essentially as described by Bowlin et al. [Cell Immunol. 98, 341-50 (1986)]. Cloned IL-2 dependent cytolytic T lymphocytes (CTLL-20), incubated alone or in the presence of (cis)-5'-deoxy-5'-[(4-amino-2-butenyl) methylamino]adenosine (Compound A) at varying concentrations, were stimulated with 10 Units/mL of IL-2 and were grown in culture. After 72 hours, cell counts were determined based on trypan blue exclusion.
as §1, with “in Example X.” for “by Bowlin et al. [Cell Immunol. 98, 341-50 (1986)].”, “100µM,” for “varying concentrations,”, “culture for 1, 2, 3 or 4 days. At the end of incubation,” for “culture. After 72 hours,”

[2] = tested on: Cloned IL-2 dependent cytolytic T lymphocytes (CTLL-20); experiment: Inhibition of interleukin-2 dependent T-cell growth in vitro: DNA synthesis activity by [^3H]-TdR pulse after IL-2 restimulation; assay type: cell-based; details: [^3H]-TdR final 6 hours
Procedure: The CTLL-20 cells were restimulated with IL-2 (10 units/mL) for 24 hours and were pulsed for the final 6 hours with [^3H]-TdR to measure DNA synthesis activity essentially as described by Bowlin et al. [Cell Immunol. 98, 341-50 (1986)].
The CTLL-20 cells were then restimulated with IL-2 (10 units/mL) for 24 hours and were pulsed for the final 6 hours with [^3H]-TdR to measure DNA synthesis activity essentially as described for Example X.

## CN(C/C=C\CN)C[C@H]1O[C@@H](n2cnc3c(N)ncnc32)[C@H](O)[C@@H]1O (relative stereo) [Compound A, (cis)-5'-deoxy-5'-[(4-amino-2-butenyl)methylamino]adenosine]
[1]; Compound A 1 µM, after 72 hours
  Cell Count Number Recovered: 4.0x10^6
[1]; Compound A 10 µM, after 72 hours
  Cell Count Number Recovered: 2.0x10^6
[1]; Compound A 100 µM, after 72 hours
  Cell Count Number Recovered: 1.0x10^6
[1]; T-lymphocyte, 24 h, time course: incubation time 1 day, Compound A 100 µM, read-out: Cell Count (% Reduction over Control) (converted)
  inhibition at 100 µM: 40%
[1]; T-lymphocyte, 48 h, time course: incubation time 2 days, Compound A 100 µM, read-out: Cell Count (% Reduction over Control) (converted)
  inhibition at 100 µM: 78%
[1]; T-lymphocyte, 72 h, time course: incubation time 3 days, Compound A 100 µM, read-out: Cell Count (% Reduction over Control) (converted)
  inhibition at 100 µM: 85%
[1]; T-lymphocyte, 96 h, time course: incubation time 4 days, Compound A 100 µM, read-out: Cell Count (% Reduction over Control) (converted)
  inhibition at 100 µM: 64%
[1]; T-lymphocyte, Compound A 1 µM, after 72 hours, read-out: Cell Count (% Reduction over Group 1) (converted)
  inhibition at 1 µM: 39%
[1]; T-lymphocyte, Compound A 10 µM, after 72 hours, read-out: Cell Count (% Reduction over Group 1) (converted)
  inhibition at 10 µM: 70%
[1]; T-lymphocyte, Compound A 100 µM, after 72 hours, read-out: Cell Count (% Reduction over Group 1) (converted)
  inhibition at 100 µM: 85%
[1]; time course: incubation time 1 day, Compound A 100 µM
  Cell Count Number Recovered: 0.3x10^6
[1]; time course: incubation time 2 days, Compound A 100 µM
  Cell Count Number Recovered: 0.7x10^6
[1]; time course: incubation time 3 days, Compound A 100 µM
  Cell Count Number Recovered: 1.0x10^6
[1]; time course: incubation time 4 days, Compound A 100 µM
  Cell Count Number Recovered: 1.7x10^6
[2]; Compound A 1 µM, 72 hours culture, restimulated with IL-2 10 units/mL for 24 hours
  DNA Synthesis CPM: 19218 CPM
[2]; Compound A 10 µM, 72 hours culture, restimulated with IL-2 10 units/mL for 24 hours
  DNA Synthesis CPM: 10005 CPM
[2]; Compound A 100 µM, 72 hours culture, restimulated with IL-2 10 units/mL for 24 hours
  DNA Synthesis CPM: 8114 CPM
[2]; T-lymphocyte, 48 h, time course: incubation time 2 days, Compound A 100 µM, then IL-2 restimulation 24 hours, read-out: DNA Synthesis (% Reduction over Control)
  inhibition at 100 µM: 45%
[2]; T-lymphocyte, 72 h, time course: incubation time 3 days, Compound A 100 µM, then IL-2 restimulation 24 hours, read-out: DNA Synthesis (% Reduction over Control)
  inhibition at 100 µM: 76%
[2]; T-lymphocyte, 96 h, time course: incubation time 4 days, Compound A 100 µM, then IL-2 restimulation 24 hours, read-out: DNA Synthesis (% Reduction over Control)
  inhibition at 100 µM: 73%
[2]; T-lymphocyte, Compound A 1 µM, 72 hours culture, restimulated with IL-2 10 units/mL for 24 hours, read-out: DNA Synthesis (% Reduction over Group 1)
  inhibition at 1 µM: 43%
[2]; T-lymphocyte, Compound A 10 µM, 72 hours culture, restimulated with IL-2 10 units/mL for 24 hours, read-out: DNA Synthesis (% Reduction over Group 1)
  inhibition at 10 µM: 70%
[2]; T-lymphocyte, Compound A 100 µM, 72 hours culture, restimulated with IL-2 10 units/mL for 24 hours, read-out: DNA Synthesis (% Reduction over Group 1)
  inhibition at 100 µM: 76%
[2]; T-lymphocyte, time course: incubation time 1 day, Compound A 100 µM, then IL-2 restimulation 24 hours, read-out: DNA Synthesis (% Reduction over Control)
  inhibition at 100 µM: 59%
[2]; time course: incubation time 1 day, Compound A 100 µM, then IL-2 restimulation 24 hours
  DNA Synthesis CPM: 7622 CPM
[2]; time course: incubation time 2 days, Compound A 100 µM, then IL-2 restimulation 24 hours
  DNA Synthesis CPM: 6197 CPM
[2]; time course: incubation time 3 days, Compound A 100 µM, then IL-2 restimulation 24 hours
  DNA Synthesis CPM: 8114 CPM
[2]; time course: incubation time 4 days, Compound A 100 µM, then IL-2 restimulation 24 hours
  DNA Synthesis CPM: 8863 CPM

Reference: patent EP0472181B1, “5-Amine substituted adenosine analogs as immunosuppressants” (MERRELL PHARMACEUTICALS INC., priority 1990, dated 1992)
